Source: ChEMBL document CHEMBL6078680, “Improving the Stability and Anti-Infective Activity of Sea Turtle AMPs Using Multiple Structural Modification Strategies” (J Med Chem, 2024)
Calls of active or inactive are those of the source. No cut-off for these calls is given here. Positions of bridges follow the written chain, without caps; N, C: chain ends. Residues, ends and D or L forms follow the SMILES beside them.

What was measured:
Acinetobacter baumannii [1] = test: In vivo antibacterial activity against Acinetobacter baumannii ATCC19606 infected in BALB/c mouse assessed as reduction in bacterial load in liver at 15 mg/kg, ip measured after 12 hrs; format: functional, organism-based
Acinetobacter baumannii [2] = test: Antipersister-activity against Acinetobacter baumannii ATCC 19606 assessed as elimination of persister cells at 50 times MIC preincubated adherent persistent cells with colistin incubation for 24 hrs; format: functional
[3] = Acute toxicity in BALB/c mouse assessed as mortality at 20 mg/kg, iv measured for 24 hrs; format: organism-based; conditions: in vivo, read-out: Activity
Cell membrane [4] = test: Induction of outer membrane permeabilization in Escherichia coli ATCC 25922 at 5 times MIC measured for 1 hr by NPN-dye based fluorescence analysis; format: subcellular
[5] = Acute toxicity in BALB/c mouse assessed as mortality at 50 mg/kg, iv measured for 24 hrs; format: organism-based; conditions: in vivo, read-out: Activity
Staphylococcus aureus [6] = test: Antimicrobial activity against Staphylococcus aureus CMCC 26003 at 5 times MIC measured at 180 mins; format: functional, organism-based
Acinetobacter baumannii [7] = test: In vivo antibacterial activity against Acinetobacter baumannii ATCC19606 infected in BALB/c mouse assessed as reduction in bacterial load in kidney at 15 mg/kg, ip measured after 12 hrs; format: functional, organism-based
Escherichia coli [8] = test: Antimicrobial activity against Escherichia coli ATCC 25922 measured at 8 hrs in presence of mouse serum; format: functional, organism-based
Staphylococcus aureus [9] = test: Antimicrobial activity against Staphylococcus aureus 08032706 assessed as reduction in microbial growth incubated for 18 hrs by broth microdilution method; format: functional
Escherichia coli [10] = test: Antibacterial activity against Escherichia coli ATCC 25922 at 1 times MIC in presence of 25 microg/ml exogenous DNA; format: functional, organism-based
Trypsin [11] = molecular target: T1, Trypsin (Homo sapiens, UniProt P07477+P07478+P35030); test: Stability of compound assessed as trypsin (unknown origin) mediated drug degradation […] measured at 24 hrs by RP-HPLC analysis; format: ADME, protein assay; conditions: read-out: Activity
Acinetobacter baumannii [12] = test: In vivo antibacterial activity against Acinetobacter baumannii ATCC19606 infected in BALB/c mouse assessed as survival at 15 mg/kg, ip administered for 12 hrs and measured after 3 hrs; format: functional; conditions: time 15 hrs
Staphylococcus aureus [13] = test: Antibiofilm activity against Staphylococcus aureus CMCC 26003 assessed as inhibition of biofilm formation incubated for 48 hrs by crystal violet staining based analysis; format: functional, organism-based
Acinetobacter baumannii [14] = test: Antibiofilm activity against Acinetobacter baumannii ATCC 19606 assessed as inhibition of biofilm formation at 4 to 8 times MIC incubated for 48 hrs by crystal violet staining based analysis; format: functional
Acinetobacter baumannii [15] = test: Antipersister-activity against Acinetobacter baumannii ATCC 19606 assessed as elimination of persister cells at 8 times MIC preincubated adherent persistent cells with colistin incubation for 24 hrs; format: functional
Escherichia coli [16] = test: Antimicrobial activity against Escherichia coli ATCC 25922 assessed as reduction in microbial growth incubated for 18 hrs by broth microdilution method; format: functional
Staphylococcus aureus [17] = test: Antibiofilm activity against Staphylococcus aureus CMCC 26003 assessed as biofilm eradication at 8 times MIC incubated for 24 hrs by crystal violet staining based analysis; format: functional
Acinetobacter baumannii [18] = test: Antibiofilm activity against Acinetobacter baumannii ATCC 19606 assessed as inhibition of biofilm formation incubated for 48 hrs by crystal violet staining based analysis; format: functional, organism-based
Cell membrane [19] = test: Induction of cell membrane permeabilization in Escherichia coli ATCC 25922 by propidium iodide dye-based fluorescence assay; format: subcellular
Acinetobacter baumannii [20] = test: Antimicrobial activity against Acinetobacter baumannii ATCC 19606 assessed as fold increase in MIC incubated for 18 hrs in presence of cardiolipin; format: functional
Escherichia coli [21] = test: Antimicrobial activity against Escherichia coli ATCC 25922 assessed as fold increase in MIC incubated for 18 hrs in presence of cardiolipin; format: functional
Staphylococcus aureus [22] = test: Antimicrobial activity against Staphylococcus aureus CMCC 26003 incubated for 18 hrs in presence of CCCP; format: functional, organism-based
Escherichia coli [23] = test: Antimicrobial activity against Escherichia coli ATCC 25922 assessed as fold increase in MIC measured at 8 hrs in presence of mouse serum; format: functional
Escherichia coli [24] = test: Bactericidal activity against Escherichia coli ATCC 25922 at 5 times MIC measured within 120 mins; format: functional, organism-based
Acinetobacter baumannii [25] = test: Antimicrobial activity against Acinetobacter baumannii ATCC 19606 assessed as fold increase in MIC incubated for 18 hrs in presence of phosphatidylglycerol; format: functional
Staphylococcus aureus [26] = test: Antimicrobial activity against Staphylococcus aureus CMCC 26003 assessed as bacterial eradication at 5 times MIC measured within 120 mins; format: functional, organism-based
Escherichia coli [27] = test: Antimicrobial activity against Escherichia coli ATCC 25922 assessed as bacterial eradication at 5 times MIC measured within 30 mins; format: functional, organism-based
Staphylococcus aureus [28] = test: Antimicrobial activity against Staphylococcus aureus CMCC 26003 assessed as fold increase in MIC measured at 8 hrs in presence of mouse serum; format: functional
RAW264.7 = test: Cytotoxicity against mouse RAW264.7 cells upto 200 microg/ml by MTT assay; format: toxicity, cell-based; conditions: dose < 200 µg/ml
Escherichia coli [29] = test: Antimicrobial activity against Escherichia coli ATCC 25922 incubated for 18 hrs in presence of CCCP; format: functional, organism-based
Staphylococcus aureus [30] = test: Antibiofilm activity against Staphylococcus aureus CMCC 26003 assessed as reduction in biofilm formation at 0.5 to 8 times MIC incubated for 24 hrs by crystal violet staining based analysis; format: functional; parameters: scale not given: the % may be the effect or the level left
Escherichia coli [31] = test: Antimicrobial activity against Escherichia coli ATCC 25922 assessed as fold increase in MIC incubated for 18 hrs in presence of phosphatidylglycerol; format: functional
Cell membrane [32] = test: Induction of cell membrane permeabilization in Escherichia coli ATCC 25922 at 2 times MIC measured for 1 hr by propidium iodide dye-based fluorescence assay; format: subcellular
Trypsin [33] = molecular target: T1, Trypsin; test: Stability of compound assessed as trypsin (unknown origin) mediated drug degradation […] measured at 6 hrs by RP-HPLC analysis; format: ADME, protein assay; conditions: read-out: Activity
Escherichia coli [34] = test: Antimicrobial activity against Escherichia coli ATCC 25922 assessed as fold increase in MIC incubated for 18 hrs in presence of LPS; format: functional
HaCaT = test: Cytotoxicity against human HaCaT cells assessed as survival rate at 100 microg/ml; format: functional; conditions: read-out: Survival
Peritoneal macrophage = test: Cytotoxicity against mouse Peritoneal macrophage cells assessed as survival rate at 100 microg/ml; format: functional; conditions: read-out: Survival
Acinetobacter baumannii [35] = test: Antimicrobial activity against Acinetobacter baumannii ATCC 19606 assessed as fold increase in MIC incubated for 18 hrs in presence of LPS; format: functional
Cell membrane [36] = test: Induction of […] membrane permeabilization in Escherichia coli ATCC 25922 at 5 times MIC measured for 1 hr by NPN-dye based fluorescence analysis; format: subcellular

SMILES	Activity (Acinetobacter baumannii [1])	Activity (Acinetobacter baumannii [2])	mortality at 24 h [3]	mortality at 24 h [5]	Activity (Staphylococcus aureus [6])	Activity (Acinetobacter baumannii [7])	MIC (Staphylococcus aureus [9])	Activity (Acinetobacter baumannii [12])	Activity (Staphylococcus aureus [13])	inhibition (INH) (Acinetobacter baumannii [14])	MIC (Escherichia coli [16])	Activity (Staphylococcus aureus [17])	Activity (Acinetobacter baumannii [18])	fold change (FC) (Acinetobacter baumannii [20])	fold change (FC) (Escherichia coli [21])	fold change (FC) (Acinetobacter baumannii [25])	fold change (FC) (Escherichia coli [31])	also measured
CC[C@H](C)[C@H](NC(=O)[C@@H](CCCNC(=N)N)NC(=O)[C@H](CO)NC(=O)[C@H](Cc1c[nH]cn1)NC(=O)[C@@H](CCCNC(=N)N)NC(=O)[C@H](CC(C)C)NC(=O)[C@@H](NC(=O)[C@@H](CCCNC(=N)N)NC(=O)CNC(=O)[C@H](CC(C)C)NC(=O)[C@H](CCC(N)=O)NC(=O)[C@@H](CCCCN)NC(=O)[C@@H](CCCNC(=N)N)NC(=O)[C@@H](NC(=O)[C@@H](CCCCN)NC(=O)[C@@H](CCCCN)NC(=O)[C@@H](N)Cc1ccccc1)C(C)C)C(C)C)C(=O)N[C@H](C(=O)N[C@H](C(=O)NCC(=O)NCC(=O)N[C@H](CCCNC(=N)N)C(=O)N[C@@H](CCSC)C(=O)N[C@H](CCCNC(=N)N)C(=O)N[C@@H](Cc1ccccc1)C(=O)O)C(C)C)[C@@H](C)O	Active	60%	33%	0%	inactive	Active	75 µg/mL	>60%	Active	80%	18.8 µg/mL	50%	Active					Activity (Cell membrane [4]): 100%; Activity (Escherichia coli [8]): inactive; Activity (Escherichia coli [10]): inactive; metabolised at 24 h (Trypsin [11]): < 60%; Activity (Acinetobacter baumannii [15]): 97.1%
CC[C@H](C)[C@H](NC(=O)[C@H](CCCNC(=N)N)NC(=O)[C@H](CO)NC(=O)[C@H](Cc1c[nH]cn1)NC(=O)[C@H](CCCNC(=N)N)NC(=O)[C@H](CC(C)C)NC(=O)[C@@H](NC(=O)[C@H](CCCNC(=N)N)NC(=O)CNC(=O)[C@H](CC(C)C)NC(=O)[C@H](CCC(N)=O)NC(=O)[C@H](CCCCN)NC(=O)[C@H](CCCNC(=N)N)NC(=O)[C@@H](NC(=O)[C@H](CCCCN)NC(=O)[C@H](CCCCN)NC(=O)[C@@H](N)Cc1ccccc1)C(C)C)C(C)C)C(=O)N[C@H](C(=O)N[C@H](C(=O)NCC(=O)NCC(=O)N[C@@H](CCCNC(=N)N)C(=O)N[C@@H](CCSC)C(=O)N[C@@H](CCCNC(=N)N)C(=O)N[C@@H](Cc1ccccc1)C(=O)O)C(C)C)[C@@H](C)O	Active	60%	0%	16.7%		Active	9.38 µg/mL	>60%	Active		2.34 µg/mL		Active	8	8	16	16	Activity (Cell membrane [19]): Dose-dependent-effect; Activity (Staphylococcus aureus [22]): Dose-dependent-effect; fold change (FC) (Escherichia coli [23]): 8; Activity (Escherichia coli [24]): Active; Activity (Staphylococcus aureus [26]): Active; Activity (Escherichia coli [27]): Active; fold change (FC) (Staphylococcus aureus [28]): 16; Activity (RAW264.7): Non-toxic; Activity (Escherichia coli [29]): Dose-dependent-effect; Activity (Staphylococcus aureus [30]): 40%; Activity (Cell membrane [32]): > 90%
CC[C@H](C)[C@H](NC(=O)[C@H](CCCNC(=N)N)NC(=O)[C@H](CO)NC(=O)[C@@H]1CSSC[C@H](N)C(=O)N[C@@H](Cc2ccccc2)C(=O)N[C@@H](CCCCN)C(=O)N[C@@H](CCCCN)C(=O)N[C@@H](C(C)C)C(=O)N[C@@H](CCCNC(=N)N)C(=O)N[C@@H](CCCCN)C(=O)N[C@@H](CCC(N)=O)C(=O)N[C@@H](CC(C)C)C(=O)NCC(=O)N[C@@H](CCCNC(=N)N)C(=O)N[C@@H](C(C)C)C(=O)N[C@@H](CC(C)C)C(=O)N[C@@H](CCCNC(=N)N)C(=O)N[C@@H](Cc2c[nH]cn2)C(=O)N1)C(=O)N[C@H](C(=O)N[C@H](C(=O)NCC(=O)NCC(=O)N[C@@H](CCCNC(=N)N)C(=O)N[C@@H](CCSC)C(=O)N[C@@H](CCCNC(=N)N)C(=O)N[C@@H](Cc1ccccc1)C(=O)O)C(C)C)[C@@H](C)O (H-CFKKVRKQLGRVLRHCSRITVGGRMRF-OH; disulfide 1-16)	Active	60%	100%	50%	inactive	Active	9.38 µg/mL	>60%	Active	80%	4.69 µg/mL	74.3%	Active	8	8	16	16	metabolised at 6 h (Trypsin [33]): 68%; fold change (FC) (Escherichia coli [34]): 4; viability at 100 µg/mL (HaCaT): > 80%; viability at 100 µg/mL (Peritoneal macrophage): > 80%; fold change (FC) (Acinetobacter baumannii [35]): 4; Activity (Cell membrane [36]): Active
